Laboratory results from patent US10689398B2, “OXA-Diazaspiro compounds having activity against pain” (ESTEVE PHARMACEUTICALS, S.A., priority 2015, dated 2020).

Target: human σ1 receptor (Homo sapiens (Human), UniProt Q99720)
Test: Human σ1 receptor radioligand assay
Assay type: binding
Conditions: transfected HEK-293 membranes, [3H](+)-pentazocine radioligand
Experimental: Human σ1 Receptor Radioligand Assay
To investigate binding properties of test compounds to human σ1 receptor, transfected HEK-293 membranes and [^3H](+)-pentazocine (Perkin Elmer, NET-1056), as the radioligand, were used. The assay was carried out with 7 μg of membrane suspension, 5 nM of [^3H](+)-pentazocine in either absence or presence of either buffer or 10 μM Haloperidol for total and non-specific binding, respectively. Binding buffer contained Tris-HCl 50 mM at pH 8. Plates were incubated at 37° C. for 120 minutes. After the incubation period, the reaction mix was then transferred to MultiScreen HTS, FC plates (Millipore), filtered and plates were washed 3 times with ice-cold 10 mM Tris-HCL (pH7.4). Filters were dried and counted at approximately 40% efficiency in a MicroBeta scintillation counter (Perkin-Elmer) using EcoScint liquid scintillation cocktail

Chain of human σ1 receptor (Q99720 whole entry): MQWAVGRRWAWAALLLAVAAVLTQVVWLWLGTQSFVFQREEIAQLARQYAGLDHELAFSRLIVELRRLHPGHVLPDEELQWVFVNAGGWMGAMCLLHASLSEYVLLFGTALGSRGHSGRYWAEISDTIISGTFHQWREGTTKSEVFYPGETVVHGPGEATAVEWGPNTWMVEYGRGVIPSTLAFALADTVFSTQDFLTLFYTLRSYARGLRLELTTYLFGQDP

SMILES | Ki [nM]
CCN1CC2(CCCN(CCC(C)C)C2)OC2(CC2)C1=O (stereo not shown) [Example 1, 12-Ethyl-7-isopentyl-4-oxa-7,12-diazadispiro[2.1.5.3]tridecan-13-one] | ≥ 500
CCN1CC2(CCCN(CCc3ccccc3)C2)OC2(CC2)C1=O (stereo not shown) [Example 2, 12-Ethyl-7-phenethyl-4-oxa-7,12-diazadispiro[2.1.5.3]tridecan-13-one] | ≥ 500
CCN1CC2(CCCN(CCc3ccccc3)CC2)OC2(CC2)C1=O (stereo not shown) [Example 3, 13-ethyl-8-phenethyl-4-oxa-8,13-diazadispiro[2.1.6.3]tetradecan-14-one] | < 100
CCN1CC2(CCCN(CCC(C)C)CC2)OC2(CC2)C1=O (stereo not shown) [Example 4, 13-ethyl-8-isopentyl-4-oxa-8,13-diazadispiro[2.1.6.3]tetradecan-14-one] | < 100
CCN1CC2(CN(CCc3ccccc3)C2)OC2(CC2)C1=O [Example 5] | < 500
CCN1CC2(CN(CCC(C)C)C2)OC2(CC2)C1=O [Example 6, 10-ethyl-7-isopentyl-4-oxa-7,10-diazadispiro[2.1.3.3]undecan-11-one] | < 100
O=C1N(c2ccccc2)CC2(CCCN(CCc3ccccc3)C2)OC12CC2 (stereo not shown) [Example 7, 7-phenethyl-12-phenyl-4-oxa-7,12-diazadispiro[2.1.5.3]tridecan-13-one] | < 500
CC(C)CCN1CCCC2(C1)CN(c1ccccc1)C(=O)C1(CC1)O2 (stereo not shown) [Example 8, 7-isopentyl-12-phenyl-4-oxa-7,12-diazadispiro[2.1.5.3]tridecan-13-one] | < 500
O=C1N(c2ccccc2)CC2(CCCN(CCc3ccccc3)CC2)OC12CC2 (stereo not shown) [Example 9, 8-phenethyl-13-phenyl-4-oxa-8,13-diazadispiro[2.1.6.3]tetradecan-14-one] | < 100
CC(C)CCN1CCCC2(CC1)CN(c1ccccc1)C(=O)C1(CC1)O2 (stereo not shown) [Example 10, 8-isopentyl-13-phenyl-4-oxa-8,13-diazadispiro[2.1.6.3]tetradecan-14-one] | < 100
CCN1CC2(CCCN(Cc3ccccc3)C2)OC2(CC2)C1=O (stereo not shown) [Example 11, 7-Benzyl-12-ethyl-4-oxa-7,12-diazadispiro[2.1.5.3]tridecan-13-one] | ≥ 500
CCN1CC2(CCCN(Cc3ccccc3)CC2)OC2(CC2)C1=O (stereo not shown) [Example 12, 8-benzyl-13-ethyl-4-oxa-8,13-diazadispiro[2.1.6.3]tetradecan-14-one] | < 100
CCN1CC2(CN(Cc3ccccc3)C2)OC2(CC2)C1=O [Example 13, 7-benzyl-10-ethyl-4-oxa-7,10-diazadispiro[2.1.3.3]undecan-11-one] | ≥ 500
O=C1N(c2ccccc2)CC2(CCCN(Cc3ccccc3)CC2)OC12CC2 (stereo not shown) [Example 14, 8-benzyl-13-phenyl-4-oxa-8,13-diazadispiro[2.1.6.3]tetradecan-14-one] | < 100
O=C1N(c2ccccc2)CC2(CCCN(Cc3ccccc3)C2)OC12CC2 (stereo not shown) [Example 15, 7-benzyl-12-phenyl-4-oxa-7,12-diazadispiro[2.1.5.3]tridecan-13-one] | ≥ 500
CCN1CC2(CCCN(CCc3ccccc3)CC2)OC2(CC2)C1 (stereo not shown) [Example 16, 13-Ethyl-8-phenethyl-4-oxa-8,13-diazadispiro[2.1.6.3]tetradecane] | < 100
CCN1CC2(CC2)OC2(CCCN(Cc3ccccc3)C2)C1 (stereo not shown) [Example 17, 7-benzyl-12-ethyl-4-oxa-7,12-diazadispiro[2.1.5.3]tridecane] | ≥ 500
CCN1CC2(CC2)OC2(CCCN(CCc3ccccc3)C2)C1 (stereo not shown) [Example 18] | ≥ 500
c1ccc(CCN2CCCC3(C2)CN(c2ccccc2)CC2(CC2)O3)cc1 (stereo not shown) [Example 19, 7-phenethyl-12-phenyl-4-oxa-7,12-diazadispiro[2.1.5.3]tridecane] | < 100
CC(C)CCN1CCCC2(C1)CN(c1ccccc1)CC1(CC1)O2 (stereo not shown) [Example 20, 7-isopentyl-12-phenyl-4-oxa-7,12-diazadispiro[2.1.5.3]tridecane] | < 100
c1ccc(CN2CCCC3(CC2)CN(c2ccccc2)CC2(CC2)O3)cc1 (stereo not shown) [Example 21, 8-benzyl-13-phenyl-4-oxa-8,13-diazadispiro[2.1.6.3]tetradecane] | < 100
c1ccc(CCN2CCCC3(CC2)CN(c2ccccc2)CC2(CC2)O3)cc1 (stereo not shown) [Example 22, 8-phenethyl-13-phenyl-4-oxa-8,13-diazadispiro[2.1.6.3]tetradecane] | < 100
c1ccc(CN2CCCC3(C2)CN(c2ccccc2)CC2(CC2)O3)cc1 (stereo not shown) [Example 23, 7-benzyl-12-phenyl-4-oxa-7,12-diazadispiro[2.1.5.3]tridecane] | < 500

SMILES | Ki [nM]
O=C(c1ccccc1)N1CC2(CC2)OC2(CCCN(CCc3ccccc3)C2)C1 (stereo not shown) [Example 24, (7-phenethyl-4-oxa-7,12-diazadispiro[2.1.5.3]tridecan-12-yl)(phenyl)methanone] | ≥ 500
CC(C)CCN1CCCC2(C1)CN(C(=O)c1ccccc1)CC1(CC1)O2 (stereo not shown) [Example 25, (7-isopentyl-4-oxa-7,12-diazadispiro[2.1.5.3]tridecan-12-yl)(phenyl)methanone] | < 500
CC(C)CN1CCCC2(C1)CN(C(=O)c1ccccc1)CC1(CC1)O2 (stereo not shown) [Example 26, (7-isobutyl-4-oxa-7,12-diazadispiro[2.1.5.3]tridecan-12-yl)(phenyl)methanone] | ≥ 500
O=C(c1ccccc1)N1CC2(CCCN(CCc3ccccc3)CC2)OC2(CC2)C1 (stereo not shown) [Example 27, (8-phenethyl-4-oxa-8,13-diazadispiro[2.1.6.3]tetradecan-13-yl)(phenyl)methanone] | < 100
CC(C)CCN1CCCC2(CC1)CN(C(=O)c1ccccc1)CC1(CC1)O2 (stereo not shown) [Example 28, (8-isopentyl-4-oxa-8,13-diazadispiro[2.1.6.3]tetradecan-13-yl)(phenyl)methanone] | < 100
CC(C)CN1CCCC2(CC1)CN(C(=O)c1ccccc1)CC1(CC1)O2 (stereo not shown) [Example 29, (8-isobutyl-4-oxa-8,13-diazadispiro[2.1.6.3]tetradecan-13-yl)(phenyl)methanone] | < 500
CCN1CC2(CCCN(CCc3ccccc3)CC2)OC(C)(C)C1=O (stereo not shown) [Example 30, 4-ethyl-2,2-dimethyl-9-phenethyl-1-oxa-4,9-diazaspiro[5.6]dodecan-3-one] | < 100
CCN1CC2(CCCN(CCC(C)C)CC2)OC(C)(C)C1=O (stereo not shown) [Example 31, 4-ethyl-9-isopentyl-2,2-dimethyl-1-oxa-4,9-diazaspiro[5.6]dodecan-3-one] | < 500
CCN1CC2(CCCN(CC(C)C)CC2)OC(C)(C)C1=O (stereo not shown) [Example 32, 4-ethyl-9-isobutyl-2,2-dimethyl-1-oxa-4,9-diazaspiro[5.6]dodecan-3-one] | < 500
O=C1N(Cc2ccccc2)CC2(CN(CCc3ccccc3)C2)OC12CC2 [Example 33, 10-benzyl-7-phenethyl-4-oxa-7,10-diazadispiro[2.1.3.3]undecan-11-one] | < 100
CC1(C)CN(C(=O)c2ccccc2)CC2(CCCN(CCc3ccccc3)CC2)O1 (stereo not shown) [Example 34, (2,2-dimethyl-9-phenethyl-1-oxa-4,9-diazaspiro[5.6]dodecan-4-yl)(phenyl)methanone] | < 100
CCN1CC2(CN(CCOC(C)C)C2)OC2(CC2)C1=O [Example 35, 10-ethyl-7-(2-isopropoxyethyl)-4-oxa-7,10-diazadispiro[2.1.3.3]undecan-11-one] | ≥ 500
CCN1CC2(CN(CCC(C)C)C2)O[C@H](C)C1=O [Example 36, (R)-8-ethyl-2-isopentyl-6-methyl-5-oxa-2,8-diazaspiro[3.5]nonan-7-one] | ≥ 500
CCN1CC2(CN(CCC(C)C)C2)O[C@@H](C)C1=O [Example 37, (S)-8-ethyl-2-isopentyl-6-methyl-5-oxa-2,8-diazaspiro[3.5]nonan-7-one] | ≥ 500
CCN1CC2(CN(CC(C)C)C2)O[C@H](C)C1=O [Example 38, (R)-8-ethyl-2-isobutyl-6-methyl-5-oxa-2,8-diazaspiro[3.5]nonan-7-one] | ≥ 500
CCN1CC2(CN(CC(C)C)C2)O[C@@H](C)C1=O [Example 39, (S)-8-ethyl-2-isobutyl-6-methyl-5-oxa-2,8-diazaspiro[3.5]nonan-7-one] | ≥ 500
CC(C)CCN1CC2(C1)CN(C(C)C)C(=O)[C@@H](C)O2 [Example 40, (R)-2-isopentyl-8-isopropyl-6-methyl-5-oxa-2,8-diazaspiro[3.5]nonan-7-one] | ≥ 500
CC(C)CCN1CC2(C1)CN(C(C)C)C(=O)[C@H](C)O2 [Example 41, (S)-2-isopentyl-8-isopropyl-6-methyl-5-oxa-2,8-diazaspiro[3.5]nonan-7-one] | ≥ 500
CC(C)CN1CC2(C1)CN(C(C)C)C(=O)[C@@H](C)O2 [Example 42, (R)-2-isobutyl-8-isopropyl-6-methyl-5-oxa-2,8-diazaspiro[3.5]nonan-7-one] | ≥ 500
CC(C)CN1CC2(C1)CN(C(C)C)C(=O)[C@H](C)O2 [Example 43, (S)-2-isobutyl-8-isopropyl-6-methyl-5-oxa-2,8-diazaspiro[3.5]nonan-7-one] | ≥ 500
CC(C)N1CC2(CN(CCC(C)(C)C)C2)O[C@@H](C)C1=O [Example 44, (S)-2-(3,3-dimethylbutyl)-8-isopropyl-6-methyl-5-oxa-2,8-diazaspiro[3.5]nonan-7-one] | ≥ 500
CC(C)N1CC2(CN(CCC(C)(C)C)C2)O[C@H](C)C1=O [Example 45, (R)-2-(3,3-dimethylbutyl)-8-isopropyl-6-methyl-5-oxa-2,8-diazaspiro[3.5]nonan-7-one] | ≥ 500
CCN1C[C@@]2(CCCN(CCC(C)C)CC2)O[C@H](C)C1=O [Example 46, (2R,6S)-4-ethyl-9-isopentyl-2-methyl-1-oxa-4,9-diazaspiro[5.6]dodecan-3-one] | ≥ 500
